Laboratory results published in the CheMixHub ionic liquid set.
± gives the uncertainty stated by the source.

Assay: xn = mol fraction of the nth substance listed

CCCC[N+](CCCC)(CCCC)Cc1ccccc1.[Cl-] + CC(C)[C@H](N)C(=O)O + O
101 kPa
Conditions | electrical conductivity, 298.15 K [S/m] | electrical conductivity, 303.15 K [S/m] | electrical conductivity, 308.15 K [S/m] | viscosity, 298.15 K [mPa·s] | viscosity, 303.15 K [mPa·s] | viscosity, 308.15 K [mPa·s]
x2 = 1.802e-05, x1 = 1.802e-05 | 0.0145 ± 0.0015 | 0.0163 ± 0.0016 | 0.0169 ± 0.0017 | – | 0.825 ± 0.032 | 0.704 ± 0.032
x2 = 1.804e-05, x1 = 5.406e-05 | 0.0303 ± 0.003 | 0.0313 ± 0.0031 | 0.0331 ± 0.0033 | – | – | –
x2 = 1.805e-05, x1 = 9.009e-05 | 0.0341 ± 0.0034 | 0.0371 ± 0.0037 | 0.0391 ± 0.0039 | – | – | –
x2 = 4.506e-05, x1 = 1.802e-05 | 0.0166 ± 0.0017 | 0.0172 ± 0.0017 | 0.0185 ± 0.0019 | – | 0.838 ± 0.032 | 0.719 ± 0.032
x2 = 4.509e-05, x1 = 5.405e-05 | 0.0312 ± 0.0031 | 0.0322 ± 0.0032 | 0.0342 ± 0.0034 | – | – | –
x2 = 4.511e-05, x1 = 9.009e-05 | 0.0353 ± 0.0035 | 0.0383 ± 0.0038 | 0.0406 ± 0.0041 | 1.296 ± 0.035 | – | –
x2 = 7.21e-05, x1 = 1.802e-05 | 0.0185 ± 0.0019 | 0.0193 ± 0.0019 | 0.0209 ± 0.0021 | – | 0.851 ± 0.032 | 0.733 ± 0.032
x2 = 7.214e-05, x1 = 5.405e-05 | 0.0325 ± 0.0033 | 0.0335 ± 0.0034 | 0.0356 ± 0.0036 | 1.273 ± 0.035 | – | –
x2 = 7.218e-05, x1 = 9.009e-05 | 0.0365 ± 0.0037 | 0.0394 ± 0.0039 | 0.0421 ± 0.0042 | – | – | –
x2 = 9.913e-05, x1 = 1.802e-05 | 0.0205 ± 0.0021 | 0.0215 ± 0.0022 | 0.0234 ± 0.0023 | – | 0.864 ± 0.032 | 0.748 ± 0.032
x2 = 9.919e-05, x1 = 5.405e-05 | 0.0338 ± 0.0034 | 0.0346 ± 0.0035 | 0.0363 ± 0.0036 | 1.288 ± 0.035 | – | –
x2 = 9.925e-05, x1 = 9.008e-05 | 0.0379 ± 0.0038 | 0.0409 ± 0.0041 | 0.0435 ± 0.0044 | – | 1.165 ± 0.034 | –
x2 = 0.0001262, x1 = 1.802e-05 | 0.0222 ± 0.0022 | 0.0236 ± 0.0024 | 0.0249 ± 0.0025 | – | 0.878 ± 0.032 | 0.763 ± 0.032
x2 = 0.0001262, x1 = 5.405e-05 | 0.0347 ± 0.0035 | 0.0357 ± 0.0036 | 0.0377 ± 0.0038 | – | – | –
x2 = 0.0001263, x1 = 9.008e-05 | 0.0391 ± 0.0039 | 0.0421 ± 0.0042 | 0.0447 ± 0.0045 | – | – | –
x2 = 0.0001532, x1 = 1.802e-05 | 0.0235 ± 0.0024 | 0.0251 ± 0.0025 | 0.0266 ± 0.0027 | – | – | 0.779 ± 0.032
x2 = 0.0001533, x1 = 5.405e-05 | 0.0356 ± 0.0036 | 0.0368 ± 0.0037 | 0.0389 ± 0.0039 | – | – | –
x2 = 0.0001534, x1 = 9.008e-05 | 0.0407 ± 0.0041 | 0.0435 ± 0.0044 | 0.0463 ± 0.0046 | – | – | –

CCO + CCCCCCCC(=O)[O-].c1c[nH+]c[nH]1
101.3 kPa, x1 = 1
Conditions | viscosity [mPa·s]
293.15 K | 1.21 ± 0.04
303.15 K | 1 ± 0.032

CCO + CCCCCCCCCCCCCCCC[N+](C)(C)C.[Br-] + O
Conditions | electrical conductivity [S/m]
298.2 K, 101.3 kPa, x2 = 0, x1 = 0.05064 | 0.00019 ± 0.0002

CCCCCC[n+]1ccn(C)c1C.O=S(=O)([N-]S(=O)(=O)C(F)(F)F)C(F)(F)F + CCCCCCCCCCCCCC[P+](CCCCCC)(CCCCCC)CCCCCC.O=S(=O)([N-]S(=O)(=O)C(F)(F)F)C(F)(F)F
Conditions | viscosity [mPa·s]
278.15 K, 100 kPa, x1 = 0.6 | 930 ± 120

CCCC[N+](CCCC)(CCCC)CCCC.O=[N+]([O-])[O-] + CCCCCCCCCCCCOS(=O)(=O)[O-].[Na+] + O
viscosity [mPa·s], 100 kPa
Conditions | x2 = 1.81e-06, x1 = 0.0001802 | x2 = 3.61e-06, x1 = 0.0001802 | x2 = 5.42e-06, x1 = 0.0001802 | x2 = 7.23e-06, x1 = 0.0001802 | x2 = 9.04e-06, x1 = 0.0001802 | x2 = 1.084e-05, x1 = 0.0001802 | x2 = 1.265e-05, x1 = 0.0001802 | x2 = 1.446e-05, x1 = 0.0001802 | x2 = 1.626e-05, x1 = 0.0001802 | x2 = 1.807e-05, x1 = 0.0001802
293.15 K | 1.012 ± 0.029 | 1.013 ± 0.029 | 1.014 ± 0.029 | 1.014 ± 0.029 | 1.015 ± 0.029 | 1.016 ± 0.029 | 1.017 ± 0.029 | 1.018 ± 0.029 | 1.018 ± 0.029 | 1.018 ± 0.029
298.15 K | 0.898 ± 0.028 | 0.9 ± 0.028 | 0.901 ± 0.028 | 0.902 ± 0.028 | 0.902 ± 0.028 | 0.903 ± 0.028 | 0.903 ± 0.028 | 0.903 ± 0.028 | 0.904 ± 0.028 | 0.904 ± 0.028
303.15 K | 0.797 ± 0.028 | 0.798 ± 0.028 | 0.798 ± 0.028 | 0.8 ± 0.028 | 0.8 ± 0.028 | 0.801 ± 0.028 | 0.801 ± 0.028 | 0.801 ± 0.028 | 0.801 ± 0.028 | 0.801 ± 0.028
308.15 K | 0.709 ± 0.027 | 0.71 ± 0.027 | 0.712 ± 0.027 | 0.713 ± 0.027 | 0.713 ± 0.027 | 0.713 ± 0.027 | 0.713 ± 0.027 | 0.714 ± 0.027 | 0.714 ± 0.027 | 0.714 ± 0.027
313.15 K | 0.643 ± 0.027 | 0.644 ± 0.027 | 0.644 ± 0.027 | 0.644 ± 0.027 | 0.645 ± 0.027 | 0.645 ± 0.027 | 0.645 ± 0.027 | 0.645 ± 0.027 | 0.645 ± 0.027 | 0.646 ± 0.027
318.15 K | 0.597 ± 0.027 | 0.597 ± 0.027 | 0.597 ± 0.027 | 0.598 ± 0.027 | 0.598 ± 0.027 | 0.598 ± 0.027 | 0.598 ± 0.027 | 0.598 ± 0.027 | 0.599 ± 0.027 | 0.599 ± 0.027

Oc1cccc(O)c1O + CCCCCCCCCCCC[N+](C)(C)C.[Br-]
101.3 kPa, x2 = 0.333
Conditions | electrical conductivity [S/m] | viscosity [mPa·s]
293.15 K | 0.00471 ± 0.00017 | –
298.15 K | 0.00821 ± 0.00025 | –
333.15 K | 0.14 ± 0.0031 | 400 ± 23

CCCC[N+](CCCC)(CCCC)CCCC.O=[N+]([O-])[O-] + CCCCCCCCCCCC[N+](C)(C)C.[Br-] + O
viscosity [mPa·s], 100 kPa
Conditions | x2 = 5.421e-05, x1 = 0.0001802 | x2 = 0.0001084, x1 = 0.0001801 | x2 = 0.0001626, x1 = 0.0001801 | x2 = 0.0002168, x1 = 0.0001801 | x2 = 0.000271, x1 = 0.0001801 | x2 = 0.0003252, x1 = 0.0001801 | x2 = 0.0003794, x1 = 0.0001801 | x2 = 0.0004335, x1 = 0.0001801 | x2 = 0.0004877, x1 = 0.0001801 | x2 = 0.0005418, x1 = 0.0001801
293.15 K | 1.042 ± 0.029 | 1.043 ± 0.029 | 1.045 ± 0.029 | 1.047 ± 0.029 | 1.048 ± 0.029 | 1.048 ± 0.029 | 1.049 ± 0.029 | 1.049 ± 0.029 | 1.049 ± 0.029 | 1.049 ± 0.029
298.15 K | 0.924 ± 0.029 | 0.926 ± 0.029 | 0.927 ± 0.029 | 0.928 ± 0.029 | 0.928 ± 0.029 | 0.929 ± 0.029 | 0.929 ± 0.029 | 0.929 ± 0.029 | 0.93 ± 0.029 | 0.93 ± 0.029
303.15 K | 0.821 ± 0.028 | 0.822 ± 0.028 | 0.822 ± 0.028 | 0.824 ± 0.028 | 0.825 ± 0.028 | 0.825 ± 0.028 | 0.825 ± 0.028 | 0.825 ± 0.028 | 0.826 ± 0.028 | 0.826 ± 0.028
308.15 K | 0.731 ± 0.028 | 0.732 ± 0.028 | 0.735 ± 0.028 | 0.735 ± 0.028 | 0.735 ± 0.028 | 0.736 ± 0.028 | 0.736 ± 0.028 | 0.736 ± 0.028 | 0.737 ± 0.028 | 0.737 ± 0.028
313.15 K | 0.664 ± 0.028 | 0.664 ± 0.027 | 0.665 ± 0.027 | 0.665 ± 0.027 | 0.665 ± 0.027 | 0.666 ± 0.027 | 0.666 ± 0.027 | 0.666 ± 0.027 | 0.666 ± 0.027 | 0.667 ± 0.028
318.15 K | 0.617 ± 0.027 | 0.617 ± 0.027 | 0.617 ± 0.027 | 0.618 ± 0.027 | 0.618 ± 0.027 | 0.618 ± 0.027 | 0.618 ± 0.027 | 0.618 ± 0.027 | 0.619 ± 0.027 | 0.619 ± 0.027
